Data reported in PMC9880438, “Pharmacokinetics of active compounds of a Terminalia chebula Retz. Ethanolic extract after oral administration rats using UPLC-MS/MS” (Frontiers in Pharmacology, 2023).
Like-named read-outs stand apart in the source and are kept apart here.

Experiments:
[1] = Stability of QC samples of the analytes in rat plasma under storage conditions; assay type: physicochemical; settings: n = 6
Method: Preparation of quality control (QC) samples with three concentrations (low, medium, and high) of 16, 160, and 3,200 ng/ml for ellagic acid; 1.6, 16, 320 ng/ml for protocatechuic acid, ethyl gallate and 1,2,3,4,6-O-pentagalloylglucose; 40, 400 and 8,000 ng/ml for chebulic acid, gallic acid, corilagin and chebulinic acid and 160, 1,600, 32000 ng/ml for chebulagic acid. Both QC samples and stock solutions were stored in a refrigerator at 4°C.
Under variable treatment conditions: stored for 12 h at auto-sampler, for 4 hours at room temperature, under three freeze-thaw cycles, and kept at −80°C for 7 days, quality control samples were analyzed to assess the stability of the nine analytes in plasma.

[2] = rat, in vivo, po
Method: (§1) UPLC-MS/MS system was used for analysis and monitoring, which consisted primarily of an Agilent 1290 UPLC system (Agilent Technologies, Germany) and an Agilent 6,470 series triple quad (TQ) mass spectrometer (MS) (Agilent Technologies, Singapore) equipped with an electrospray ionization source.
(§2) Separation was carried out on an ACQUITY UPLC® HSS T3 column (2.1 × 100 mm, 1.8 μm), and temperature in the column was kept at 20°C. In the mobile phase, 0.1% formic acid in water and acetonitrile were used as solvents A and B, respectively. Gradient elution was performed as follows: 1%–5% B at 0–3 min; 5%–30% B at 3–4 min; 30%–40% B at 4–8 min; 40%–100% B at 8–9 min; 100%–100% B at 9–12 min. The flow rate was set at 0.3 ml/min and the injection volume was 10 μL.
(§3) Multiple reaction monitoring (MRM) was used for quantitative analysis in negative (−) ionization mode. The mass spectrometric parameters were set as follows: drying gas (N2) temperature was 300°C; gas (N2) flow rate was 7 L/min; atomizer pressure was 35 psi; sheath gas flow was 11 L/min and capillary voltage was 3800 V. The specific mass spectrometric parameters of the precursor ion, product ion, fragmentor, collision energy, and ion modes of the nine compounds and IS are shown in Table 1.
(§4) The plasma sample (100 μl) was sequentially spiked with 20 μl IS solutions (caffeic acid, 1,000 ng/ml); 20 μL methanol, and 10 μl formic acid, then vortex-mixed for 1 min. The mixture was precipitated protein with 1,000 μl methanol by vortex mixing for 3 min. The supernatant was collected into a 1.5 ml clean centrifuge tube after centrifugation at for 10 min 14,000 rpm, and evaporated under a nitrogen stream until dry. After that, the residue was redissolved in 100 μl methanol, vortex-mixed for 3 min, then centrifuged for 10 min at 14,000 rpm. 10 μl analyte was injected into the UPLC-MS/MS system.
(§5) In this study, six of male rats were used, given free access to water, and fasted for 12 h before the experimental period. The TC extracts were dissolved in 0.5% CMC-Na aqueous solution as a suspension at a concentration of 1 g/ml. A dose of 10 g/kg of the suspension was administered to the rats orally, the blood samples of approximately 300 μL were drawn from the fundus venous plexus of rats pre- and post-oral administration at 0.00, 0.08, 0.17, 0.25, 0.50, 0.75, 1, 2, 4, 6, 8, 10, 12, 24, 36, 48, 60, 72, 84, 96, 120, 144 and 168 h, respectively. For analysis, the plasma supernatants collected from the centrifuged plasma were frozen at −80°C after centrifugation for 10 min at 6,000 rpm.
(§6) Data were expressed as mean ± standard deviation (mean ± SD). MassHunter Workstation software (version B.09.00) was quantitatively used to calculate the plasma concentrations of nine analytes. To evaluate the specific pharmacokinetic parameters, DAS Software (DAS 3.0, Medical College of Wannan, China) was used to process the pharmacokinetic results.

[3] = Pharmacokinetic study in rats after oral administration of TC extracts (UPLC-MS/MS of plasma); settings: for AUC / AUC(0-inf) / Cmax / MRT / MRT inf / Tmax / half-life: male, Sprague-Dawley, rat, plasma, po, 10 g/kg
Method: as §1, §2, §3, §4, §5, §6

[4] = in vivo; settings: male, Sprague-Dawley, rat, po, 10 g/kg
Method: as §1, §2, §3, §4, §5, §6

[5] = spiked 40 ng/mL, autosampler for 12 h
[6] = spiked 40 ng/mL, room temperature for 4 h
[7] = spiked 40 ng/mL, three freeze-thaw cycles
[8] = spiked 40 ng/mL, −80°C for 7 days
[9] = spiked 400 ng/mL, autosampler for 12 h
[10] = spiked 400 ng/mL, room temperature for 4 h
[11] = spiked 400 ng/mL, three freeze-thaw cycles
[12] = spiked 400 ng/mL, −80°C for 7 days
[13] = spiked 8,000 ng/mL, autosampler for 12 h
[14] = spiked 8,000 ng/mL, room temperature for 4 h
[15] = spiked 8,000 ng/mL, three freeze-thaw cycles
[16] = spiked 8,000 ng/mL, −80°C for 7 days
[17] = spiked 16 ng/mL, autosampler for 12 h
[18] = spiked 16 ng/mL, room temperature for 4 h
[19] = spiked 16 ng/mL, three freeze-thaw cycles
[20] = spiked 16 ng/mL, −80°C for 7 days
[21] = spiked 1.6 ng/mL, autosampler for 12 h
[22] = spiked 1.6 ng/mL, room temperature for 4 h
[23] = spiked 1.6 ng/mL, three freeze-thaw cycles
[24] = spiked 1.6 ng/mL, −80°C for 7 days
[25] = spiked 320 ng/mL, autosampler for 12 h
[26] = spiked 320 ng/mL, room temperature for 4 h
[27] = spiked 320 ng/mL, three freeze-thaw cycles
[28] = spiked 320 ng/mL, −80°C for 7 days

Row | SMILES | Measured concentration after storage [1, 5] | Measured concentration after storage [1, 6] | Measured concentration after storage [1, 7] | Measured concentration after storage [1, 8] | Measured concentration after storage [1, 9] | Measured concentration after storage [1, 10] | Measured concentration after storage [1, 11] | Measured concentration after storage [1, 12] | Measured concentration after storage [1, 13] | Measured concentration after storage [1, 14] | Measured concentration after storage [1, 15] | Measured concentration after storage [1, 16] | Measured concentration after storage [1, 17] | AUC [3] | AUC(0-inf) [3] | Cmax [3] | MRT [3] | MRT inf [3] | Tmax [3] | half-life [3] | also measured
1 | O=C(O)C[C@H](C(=O)O)[C@H]1c2c(cc(O)c(O)c2O)C(=O)O[C@@H]1C(=O)O [Chebulic acid, chebulic acid] | 35.6 ± 3.9 ng/mL | 39.9 ± 1.9 ng/mL | 40.1 ± 3.3 ng/mL | 37.5 ± 2.1 ng/mL | 393.3 ± 52.6 ng/mL | 395.7 ± 29.7 ng/mL | 398.4 ± 12.2 ng/mL | 364.4 ± 17.5 ng/mL | 8,230.9 ± 726.4 ng/mL | 7,996.4 ± 517.7 ng/mL | 7,691 ± 316.7 ng/mL | 6,878.6 ± 535.3 ng/mL |  |  |  |  |  |  |  |  | T1/2 [2]: 1.51 h; AUC (0-tn) ([2]; 10 g/kg): 29045.30 ± 4,395.44 h·ng/mL; AUC (0-∞) ([2]; 10 g/kg): 34069.03 ± 6,641.84 h·ng/mL; Cmax ([2]; 10 g/kg): 1.92706 ± 0.57223 µg/mL; MRT (0-tn) ([2]; 10 g/kg): 33.56 ± 3.77 h; MRT (0-∞) ([2]; 10 g/kg): 77.92 ± 22.14 h; T1/2 ([2]; 10 g/kg): 6.60 ± 4.36 h; Tmax ([2]; 10 g/kg): 1.67 ± 0.52 h
2 | O=c1oc2c(O)c(O)cc3c(=O)oc4c(O)c(O)cc1c4c23 [Ellagic acid, ellagic acid] |  |  |  |  |  |  |  |  |  |  |  |  | 17.6 ± 1.6 ng/mL | 6.81 µg·h/mL | 7.34 µg·h/mL | 0.39 ± 0.0805 µg/mL | 45.9 ± 8.13 h | 56.5 ± 13 h | 0.97 ± 0.84 h | 8.23 ± 8.95 h | Measured concentration after storage [1, 18]: 17.5 ± 1.7 ng/mL; Measured concentration after storage [1, 19]: 16.9 ± 1.4 ng/mL; Measured concentration after storage [1, 20]: 16.8 ± 1.0 ng/mL; Measured concentration after storage ([1]; spiked 160 ng/mL, autosampler for 12 h): 154.8 ± 13.9 ng/mL; Measured concentration after storage ([1]; spiked 160 ng/mL, room temperature for 4 h): 156.3 ± 17.8 ng/mL; Measured concentration after storage ([1]; spiked 160 ng/mL, three freeze-thaw cycles): 171.8 ± 10.5 ng/mL; Measured concentration after storage ([1]; spiked 160 ng/mL, −80°C for 7 days): 163.8 ± 4.3 ng/mL; Measured concentration after storage ([1]; spiked 3,200 ng/mL, autosampler for 12 h): 3,450.0 ± 313.1 ng/mL; Measured concentration after storage ([1]; spiked 3,200 ng/mL, room temperature for 4 h): 3,437.2 ± 188 ng/mL; Measured concentration after storage ([1]; spiked 3,200 ng/mL, three freeze-thaw cycles): 3,438.7 ± 285.7 ng/mL; Measured concentration after storage ([1]; spiked 3,200 ng/mL, −80°C for 7 days): 3,594.0 ± 81.5 ng/mL; Shape of plasma concentration-time curve ([3]; rat plasma, oral TC extracts, Figure 2): double peaks phenomenon
3 | O=C(O[C@@H]1O[C@@H]2COC(=O)c3cc(O)c(O)c(O)c3-c3c(cc(O)c(O)c3O)C(=O)O[C@H]([C@H]1O)[C@@H]2O)c1cc(O)c(O)c(O)c1 [Corilagin, corilagin] | 38.8 ± 1.2 ng/mL | 39.6 ± 3.0 ng/mL | 42.8 ± 2.4 ng/mL | 39.7 ± 2.1 ng/mL | 435.7 ± 34.5 ng/mL | 398.2 ± 34.3 ng/mL | 405.3 ± 6.0 ng/mL | 395.6 ± 7.2 ng/mL | 7,335.4 ± 704.5 ng/mL | 8,930.5 ± 535.3 ng/mL | 8,802.7 ± 713.0 ng/mL | 8,304.6 ± 362.4 ng/mL |  | 16.7 ± 12.4 µg·h/mL | 17.4 ± 12.5 µg·h/mL | 0.591 ± 0.203 µg/mL | 53.5 ± 4.12 h | 99.4 ± 46.2 h | 1.67 ± 0.52 h | 26.4 ± 22.2 h | 
4 | O=C(O)c1ccc(O)c(O)c1 [Protocatechuic acid, protocatechuic acid] |  |  |  |  |  |  |  |  |  |  |  |  | 14.5 ± 2.0 ng/mL | 0.0708 ± 0.0166 µg·h/mL | 0.0708 ± 0.0166 µg·h/mL | 0.0247 ± 0.00327 µg/mL | 3.39 ± 0.83 h | 3.39 ± 0.83 h | 0.54 ± 0.1 h | 2.06 ± 0.76 h | Measured concentration after storage [1, 21]: 1.7 ± 0.2 ng/mL; Measured concentration after storage [1, 22]: 1.6 ± 0.1 ng/mL; Measured concentration after storage [1, 23]: 1.8 ± 0.1 ng/mL; Measured concentration after storage [1, 24]: 1.5 ± 0.2 ng/mL; Measured concentration after storage [1, 18]: 16.4 ± 0.6 ng/mL; Measured concentration after storage [1, 19]: 13.9 ± 0.7 ng/mL; Measured concentration after storage [1, 20]: 13.1 ± 1.2 ng/mL; Measured concentration after storage [1, 25]: 305.9 ± 15.9 ng/mL; Measured concentration after storage [1, 26]: 297.9 ± 8.4 ng/mL; Measured concentration after storage [1, 27]: 330.3 ± 18.5 ng/mL; Measured concentration after storage [1, 28]: 334.2 ± 8.0 ng/mL
5 | O=C(O)c1cc(O)c(O)c(O)c1 [Gallic acid, gallic acid] | 34.9 ± 5.1 ng/mL | 35.5 ± 1.0 ng/mL | 41.0 ± 2.8 ng/mL | 41.2 ± 0.8 ng/mL | 431.7 ± 27.3 ng/mL | 385 ± 36.1 ng/mL | 393.9 ± 35.3 ng/mL | 358.6 ± 21.8 ng/mL | 8,051.6 ± 602.3 ng/mL | 8,051.2 ± 472.7 ng/mL | 8,222.3 ± 456.3 ng/mL | 8,304.7 ± 418.5 ng/mL |  |  |  |  |  |  |  |  | T1/2 ([2]; male, Sprague-Dawley): 2.06 h; AUC [4]: 16 µg·h/mL; AUC(0-inf) [4]: 16 µg·h/mL; Cmax [4]: 2.23 µg/mL; MRT [4]: 6.58 ± 1.07 h; MRT inf [4]: 6.58 ± 1.07 h; Tmax [4]: 1.17 ± 0.41 h; half-life [4]: 1.51 ± 0.43 h
6 | CCOC(=O)c1cc(O)c(O)c(O)c1 [Ethyl gallate, ethyl gallate] |  |  |  |  |  |  |  |  |  |  |  |  | 16.3 ± 2.6 ng/mL | 0.0169 ± 0.00828 µg·h/mL | 0.0169 ± 0.0082 µg·h/mL | 0.0125 ± 0.00438 µg/mL | 1.55 ± 0.42 h | 1.6 ± 0.4 h | 0.63 ± 0.26 h | 2.08 ± 2.16 h | Measured concentration after storage [1, 21]: 1.7 ± 0.2 ng/mL; Measured concentration after storage [1, 22]: 1.4 ± 0.1 ng/mL; Measured concentration after storage [1, 23]: 1.6 ± 0.1 ng/mL; Measured concentration after storage [1, 24]: 1.6 ± 0.1 ng/mL; Measured concentration after storage [1, 18]: 14.6 ± 1.9 ng/mL; Measured concentration after storage [1, 19]: 13.6 ± 1.2 ng/mL; Measured concentration after storage [1, 20]: 14.2 ± 0.4 ng/mL; Measured concentration after storage [1, 25]: 323.3 ± 13.8 ng/mL; Measured concentration after storage [1, 26]: 345.6 ± 14.7 ng/mL; Measured concentration after storage [1, 27]: 328.6 ± 17.1 ng/mL; Measured concentration after storage [1, 28]: 307.4 ± 29.5 ng/mL
